The text below walks through data of patent US12648957B2, “Compositions and methods for the treatment of SWI-SNF mutant tumors” (The Children's Hospital of Philadelphia, priority 2019, dated 2026).

Each structure is given as a SMILES string.

Series [1] concerns BT12 and G401 rhabdoid tumor cells. Put plainly: Dose response curves in BT12 and G401 cells. The format is cell-based. The following applies: for sensitivity of rhabdoid tumor cells (dose response curve): BT12 and G401. As for the experimental part:
(§1) Cell Culture. BT12 and CHLA266 cell lines were obtained from the Children's Oncology Group. G401 cell line was obtained from ATCC. TC32 cells were obtained from Dr. Lee Helman (Children's Hospital of Los Angeles). U2OS cells were obtained from Dr. Chand Khanna (Ethos Veterinary Health LLC). All cell lines were grown in RPMI-1640 medium (Invitrogen) supplemented with 10% fetal bovine serum (Gemini Bio-Products), 2 mM L-glutamine (Invitrogen), 100 U/mL penicillin and 100 μg/mL streptomycin (Invitrogen). Cell lines were maintained at less than 80% confluency at 37° C. and 5% CO2 and confirmed to be mycoplasma negative every 6-months.
(§2) Cell Proliferation Assays. IC50s were calculated with non-linear regression (Graphpad Prism) as the average of three independent experiments performed in duplicate. Cell viability was measured using MTS assay CellTiter96 (Promega) plotted against a standard curve and was confirmed with real-time proliferation assays on the Incucyte Zoom, as previously described (Harlow et al., 2019).

Series [2] relates to G401 rhabdoid tumor xenografts. The series is described as follows: Intramuscular G401 rhabdoid tumor xenograft model. The following applies: for median survival: vehicle 28-days.
Description: Xenograft Experiments. 5×10^6 G401-luc cells were injected intramuscularly into the gastrocnemius of 8 to 10-week-old female homozygous nude mice (Crl; Nu-Foxn1^Nu). […] Pumps were implanted intraperitoneally and removed with 7-days after end of drug delivery. […] Investigators were not blinded to the treatment groups.
Bioluminescence Imaging. Mice were administered Firefly D-Luciferin (GoldBio, 1.5 mg/mouse) with intraperitoneal injections. After injection anesthesia was administered throughout the image acquisition (3% isoflurane at 1 L/min 02 flow). Bioluminescent images were taken 10 minutes after injection using the AMI-1000 imaging system.
Tissue Staining and Immunohistochemistry. Tissues were decalcified in 10% EDTA (pH 8.0) for 7-days prior to paraffin embedding. Paraffin embedded tissue was sectioned into 5-micrometer sections and mounted on colormark plus charged slides. Hematoxylin and Eosin staining was performed on the Ventana Symphony instrument. For immunohistochemistry, antigen retrieval was performed on the PT Link platform on the Dako Autostainer Plus instrument. Following blocking, tissue was incubated with H3K27me3 antibody (Abcam 1:250) or Cleaved Caspase-3 (Cell Signaling Antibody 1:250), washed and then secondary antibody (Envision+System HRP labelled polymer Anti-Rabbit, Dako 1:100) and finished with Dako Liquid DAB+Substrate Chromogen System.
The conditions of series [3]: multiple species; cited from earlier work.
Series [4] deals with BT12 and G401 rhabdoid tumor cells. The series is described as follows: Live cell imaging proliferation and phenotype (Incucyte Zoom). The format is cell-based. As to conditions: BT12, EC-8042 200 nM compared with mithramycin 100 nM. As for the experimental part: as §2
Series [5] has as its system rhabdoid tumor cell lines (BT12 AT/RT, CHLA266 AT/RT, and G401 RTK). The series is described as follows: Cell proliferation assay (MTS CellTiter96), rhabdoid tumor vs Ewing sarcoma cells. In kind it is cell-based. As to conditions: three rhabdoid tumor cell lines vs Ewing sarcoma cells, FIG. 1C. The procedure: as §1, §2
A further series deals with SP1. The series is described as follows: SP1 expression by quantitative PCR and western blot. As to conditions: BT12 and G401 cells, tolfenamic acid concentrations of FIG. 3G. Background: Immunoblotting shows a protein as a band on a membrane.
Where [6] appears, read: EC-8042 3-day pump, day 4, vs vehicle.

Description for SP1: RNA was subsequently collected using the RNeasy kit and quantified. The RNA was reverse transcribed with the high capacity reverse transcriptase kit (Life Technologies) at 25° C. for 10 minutes, 37° C. for 120 minutes, and 85° C. for 5 minutes. 100 ng cDNA was PCR amplified with 2×SYBR green at 95° C. for 10 min, 95° C. for 15 s, 55° C. for 15s, and 72° C. for 1 min, for 40 cycles. Expression from three independent experiments performed in duplicate was calculated with standard ddCT methods relative to GAPDH and solvent controls.
Cellular fractionation was performed to separate cytoplasmic and nuclear fractions. Fractionation lysates were lysed with cytoplasmic lysis buffer (25 mM HEPES pH 8.0, 50 mM KCl, and 05% NP-40) supplemented with RNAse (Thermo Fisher Scientific) and protease inhibitors (Sigma-Aldrich) for 15-minutes on ice vortexing every 5-minutes. The nuclei were pelleted at 1500× g for 5 minutes and the cytoplasmic fraction was isolated. The nuclei pellet was lysed with 4% LDS lysis buffer. Following dilution of detergent, protein was quantified with the BCA colorimetric assay (Thermo-Scientific). […] Transfer was run at 20 V and 4° C. overnight. The membranes were blocked with 5% milk in TBS-T (1×TBS, 0.1% Tween-20) and probed with Abcam (H3K27me3), EMD Millipore (SP1), and Cell Signaling (SMARCC1, SMARCE1, H3) antibodies.

Turning to `CO[C@@H]([C@@H]1Cc2cc3cc(O[C@H]4CC(O[C@H]5CC(O)[C@H](O)C(C)O5)[C@H](O)C(C)O4)c(C)c(O)c3c(O)c2C(=O)[C@H]1O[C@H]1CC(O[C@H]2CC(O[C@H]3CC(O)[C@H](O)C(C)O3)[C@@H](O)C(C)O2)[C@H](O)C(C)O1)[C@@H](O)C(C)=O` (stereo partly drawn) [EC-8042, demycarosyl-3D-β-D-ditioxosyl-mithramycin SK], the “sensitivity of rhabdoid tumor cells (dose response curve)” value in series [1] is recorded as “sensitive”. For the same compound, the “concentration at which rhabdoid tumor is sensitive, relative to mithramycin” value in series [1] (in vitro, FIGS. S5A-B) was “slightly higher concentration as mithramycin”. The body weight result in series [2] (EC-8042 3-day and 7-day pump, resolved with cessation of drug infusion) was “minimal transient weight loss”. Also, the “differentiation in xenograft tumors (H&E)” value in series [2] (EC-8042 3-day or 7-day pump) was “striking evidence of mesenchymal differentiation”. Also, the median survival in series [2] (EC-8042 3-day pump (30 mg/kg)) came out at 68 days. Besides, the “mice with complete cures” value in series [2] (EC-8042 3-day pump cohort) was “Three”. In series [2] (setting [6]), the “H3K27ac staining (IHC)” value is listed as “decrease”, the “H3K27me3 staining (IHC)” value was “significantly increase in positive staining”, the “cleaved caspase 3 (CC3) staining (IHC)” value is listed as “significantly increase in positive staining” and the “human mitochondrial staining (IHC)” value is reported as “decrease”. Also, the median survival in series [2] (EC-8042 7-day pump (50 mg/kg)) turned out to be 70 days. Also, in series [2] (EC-8042, 7-days after treatment, compared with vehicle), the “calcification of tumor tissue (micro-CT)” value is “enhances the calcification and mineralization”. Further, the “duration of response post end of infusion” value in series [2] (EC-8042, most mice) is around 6 weeks. For the same compound, the “time after treatment without tumor recurrence in cured mice” value in series [2] (EC-8042, several mice) is given as 140 days. The “bioluminescent imaging of tumor” value in series [2] (EC-8042, subset of mice, end of infusion) is listed as “almost no detectable tumor”. Besides, in series [2] (EC-8042 continuous infusion), the “time to tumor recurrence after treatment end” value is “approximately 40 days”. Moreover, the tumor response result in series [2] (EC-8042 continuous infusion, 3-days (30 mg/kg) or 7-days (50 mg/kg), all mice in both cohorts) is on record as “striking regressions”. In addition, the “toxicity relative to mithramycin” value in series [3] is “more than 10 times”. Besides, in series [4], the cell phenotype entry is “lipid accumulation and a flattened cell phenotype”.

As for `COc1cccc2c1C(=O)c1c(O)c3c(c(O)c1C2=O)C[C@@](O)(C(=O)CO)C[C@@H]3O[C@H]1C[C@H](N)[C@H](O)[C@H](C)O1` [doxorubicin], the “fold less sensitive than Ewing sarcoma cells” value in series [5] turned out to be 4 fold.

`CCc1c2c(nc3ccc(O)cc13)-c1cc3c(c(=O)n1C2)COC(=O)[C@]3(O)CC` [SN38]: in series [5], the “fold less sensitive than Ewing sarcoma cells” value is recorded as 100 fold.

On to `Cc1c(Cl)cccc1Nc1ccccc1C(=O)O` [tolfenamic acid, reference compound], for which, in series [1], the “sensitivity of rhabdoid tumor cells (dose response curve)” value was “not sensitive”. Further, in the series with SP1, the “SP1 expression (western blot)” value is on record as “loss of SP1 expression”.

Regarding `COc1cc([C@@H]2c3cc4c(cc3[C@@H](O[C@@H]3O[C@@H]5CO[C@@H](C)O[C@H]5[C@H](O)[C@H]3O)[C@H]3COC(=O)[C@H]23)OCO4)cc(OC)c1O` [etoposide], the “fold less sensitive than Ewing sarcoma cells” value in series [5] turned out to be 70 fold.
